Reference: ChEMBL document CHEMBL5338706, “Discovery of a potent and selective proteolysis targeting chimera (PROTAC) degrader of NSD3 histone methyltransferase” (Eur J Med Chem, 2022)
Active and inactive are the calls of the source. No cut-off for these calls is given here.

How the values were obtained:
[1] = molecular target: T1, Histone-lysine N-methyltransferase NSD3 (Homo sapiens) (UniProt Q9BZ95); assay: Induction of NSD3 degradation in human NCI-H1703 cells at 5 uM incubated for 72 hrs by Western blot analysis; assay type: cell-based
T1 sequence (whole entry): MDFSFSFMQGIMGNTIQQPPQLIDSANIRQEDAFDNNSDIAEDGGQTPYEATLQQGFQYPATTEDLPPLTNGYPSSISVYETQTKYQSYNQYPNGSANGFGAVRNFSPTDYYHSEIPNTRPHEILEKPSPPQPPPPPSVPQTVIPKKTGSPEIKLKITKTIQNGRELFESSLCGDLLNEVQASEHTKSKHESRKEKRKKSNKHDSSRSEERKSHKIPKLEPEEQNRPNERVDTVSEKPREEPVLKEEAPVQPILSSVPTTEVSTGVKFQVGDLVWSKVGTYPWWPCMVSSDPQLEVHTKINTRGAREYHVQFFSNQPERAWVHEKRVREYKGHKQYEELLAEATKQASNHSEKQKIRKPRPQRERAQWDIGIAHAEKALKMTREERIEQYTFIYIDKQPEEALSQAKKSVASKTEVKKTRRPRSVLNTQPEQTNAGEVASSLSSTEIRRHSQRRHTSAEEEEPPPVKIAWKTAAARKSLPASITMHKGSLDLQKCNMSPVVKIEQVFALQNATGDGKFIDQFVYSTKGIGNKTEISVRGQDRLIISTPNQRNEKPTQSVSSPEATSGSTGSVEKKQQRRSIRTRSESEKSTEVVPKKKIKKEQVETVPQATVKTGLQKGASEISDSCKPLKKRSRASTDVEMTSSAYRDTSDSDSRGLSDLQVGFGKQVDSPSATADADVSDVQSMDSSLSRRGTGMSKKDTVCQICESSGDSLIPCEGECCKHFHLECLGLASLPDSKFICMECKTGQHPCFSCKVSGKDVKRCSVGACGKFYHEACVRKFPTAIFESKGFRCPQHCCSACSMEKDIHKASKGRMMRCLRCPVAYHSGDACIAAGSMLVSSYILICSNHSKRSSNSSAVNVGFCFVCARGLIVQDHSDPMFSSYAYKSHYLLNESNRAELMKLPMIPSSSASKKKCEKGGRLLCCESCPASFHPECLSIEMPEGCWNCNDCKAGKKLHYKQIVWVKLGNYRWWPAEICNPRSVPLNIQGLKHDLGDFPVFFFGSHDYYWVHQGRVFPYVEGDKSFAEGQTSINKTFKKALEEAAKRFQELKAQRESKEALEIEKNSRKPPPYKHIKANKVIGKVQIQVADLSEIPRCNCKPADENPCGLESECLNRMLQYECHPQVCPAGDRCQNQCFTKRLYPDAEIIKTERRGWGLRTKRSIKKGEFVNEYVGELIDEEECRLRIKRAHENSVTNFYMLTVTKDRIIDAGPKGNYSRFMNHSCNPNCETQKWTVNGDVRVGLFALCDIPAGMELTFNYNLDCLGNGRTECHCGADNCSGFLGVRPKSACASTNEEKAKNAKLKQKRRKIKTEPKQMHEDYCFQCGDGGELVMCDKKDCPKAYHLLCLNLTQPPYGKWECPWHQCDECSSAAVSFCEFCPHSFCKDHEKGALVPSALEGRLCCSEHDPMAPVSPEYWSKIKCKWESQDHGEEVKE

NCI-H1703 = assay: Antiproliferative activity against human NCI-H1703 cells at upto 10 uM incubated for 6 days by CCK-8 method; assay type: functional, cell-based; conditions: time 6.0 day
[2] = molecular target: T1, Histone-lysine N-methyltransferase NSD3 (Homo sapiens); assay: Induction of NSD3 degradation in human NCI-H1703 cells at upto 9 uM incubated for 72 hrs by Western blot analysis; assay type: cell-based
A549 = assay: Antiproliferative activity against human A549 cells at upto 10 uM incubated for 3 days by CCK-8 method; assay type: functional, cell-based; conditions: time 3.0 day

NSD3 degradation [1] [%]	Compound	other results
25.8	Cc1cc(CNCCCN2CCN(CCC(=O)N[C@H](C(=O)N3C[C@H](O)C[C@H]3C(=O)N[C@@H](C)c3ccc(-c4scnc4C)cc3)C(C)(C)C)CC2)cc(C)c1-c1ncn(C)c1-c1ccnc2cc(F)ccc12	–
53.5	Cc1cc(CNCCCCCN2CCN(CC(=O)N[C@H](C(=O)N3C[C@H](O)C[C@H]3C(=O)N[C@@H](C)c3ccc(-c4scnc4C)cc3)C(C)(C)C)CC2)cc(C)c1-c1ncn(C)c1-c1ccnc2cc(F)ccc12	–
7.4	Cc1cc(CNCCOCCOCCOCCC(=O)N[C@H](C(=O)N2C[C@H](O)C[C@H]2C(=O)N[C@@H](C)c2ccc(-c3scnc3C)cc2)C(C)(C)C)cc(C)c1-c1ncn(C)c1-c1ccnc2cc(F)ccc12	–
15.6	Cc1cc(CNCCCCCCCCCCCNc2cccc3c2C(=O)N(C2CCC(=O)NC2=O)C3=O)cc(C)c1-c1ncn(C)c1-c1ccnc2cc(F)ccc12 (stereo not drawn)	–
1.2	Cc1cc(CNCCCCCCCCCC(=O)N[C@H](C(=O)N2C[C@H](O)C[C@H]2C(=O)N[C@@H](C)c2ccc(-c3scnc3C)cc2)C(C)(C)C)cc(C)c1-c1ncn(C)c1-c1ccnc2cc(F)ccc12	–
6.3	Cc1cc(CNCCCCCCC(=O)N[C@H](C(=O)N2C[C@H](O)C[C@H]2C(=O)N[C@@H](C)c2ccc(-c3scnc3C)cc2)C(C)(C)C)cc(C)c1-c1ncn(C)c1-c1ccnc2cc(F)ccc12	–
10.7	Cc1cc(CNCCOCCOCCOCC(=O)N[C@H](C(=O)N2C[C@H](O)C[C@H]2C(=O)N[C@@H](C)c2ccc(-c3scnc3C)cc2)C(C)(C)C)cc(C)c1-c1ncn(C)c1-c1ccnc2cc(F)ccc12	–
16.4	Cc1cc(CNCCCCCCCCCCCCCCCC(=O)N[C@H](C(=O)N2C[C@H](O)C[C@H]2C(=O)N[C@@H](C)c2ccc(-c3scnc3C)cc2)C(C)(C)C)cc(C)c1-c1ncn(C)c1-c1ccnc2cc(F)ccc12	–
7.7	Cc1cc(CNCCOCCOCCOCCOCCC(=O)N[C@H](C(=O)N2C[C@H](O)C[C@H]2C(=O)N[C@@H](C)c2ccc(-c3scnc3C)cc2)C(C)(C)C)cc(C)c1-c1ncn(C)c1-c1ccnc2cc(F)ccc12	–
13.8	Cc1cc(CNCCCN2CCN(CCCC(=O)N[C@H](C(=O)N3C[C@H](O)C[C@H]3C(=O)N[C@@H](C)c3ccc(-c4scnc4C)cc3)C(C)(C)C)CC2)cc(C)c1-c1ncn(C)c1-c1ccnc2cc(F)ccc12	–
21	Cc1cc(CNCCCCCCCCCCNc2cccc3c2C(=O)N(C2CCC(=O)NC2=O)C3=O)cc(C)c1-c1ncn(C)c1-c1ccnc2cc(F)ccc12 (stereo not drawn)	–
0.7	Cc1cc(CNCCCCCCCCC(=O)N[C@H](C(=O)N2C[C@H](O)C[C@H]2C(=O)N[C@@H](C)c2ccc(-c3scnc3C)cc2)C(C)(C)C)cc(C)c1-c1ncn(C)c1-c1ccnc2cc(F)ccc12	–
-2.4	Cc1cc(CNCCCCCCCC(=O)N[C@H](C(=O)N2C[C@H](O)C[C@H]2C(=O)N[C@@H](C)c2ccc(-c3scnc3C)cc2)C(C)(C)C)cc(C)c1-c1ncn(C)c1-c1ccnc2cc(F)ccc12	–
33.1	Cc1cc(CNCCCCCCCCCCCCCCC(=O)N[C@H](C(=O)N2C[C@H](O)C[C@H]2C(=O)N[C@@H](C)c2ccc(-c3scnc3C)cc2)C(C)(C)C)cc(C)c1-c1ncn(C)c1-c1ccnc2cc(F)ccc12	–
1.5	Cc1cc(CNCCCCCCCCCCCCNc2cccc3c2C(=O)N(C2CCC(=O)NC2=O)C3=O)cc(C)c1-c1ncn(C)c1-c1ccnc2cc(F)ccc12 (stereo not drawn)	–
-7.2	Cc1cc(CNCCOCCOCCC(=O)N[C@H](C(=O)N2C[C@H](O)C[C@H]2C(=O)N[C@@H](C)c2ccc(-c3scnc3C)cc2)C(C)(C)C)cc(C)c1-c1ncn(C)c1-c1ccnc2cc(F)ccc12	–
1.5	Cc1cc(CNCCCCCCCCCCCC(=O)N[C@H](C(=O)N2C[C@H](O)C[C@H]2C(=O)N[C@@H](C)c2ccc(-c3scnc3C)cc2)C(C)(C)C)cc(C)c1-c1ncn(C)c1-c1ccnc2cc(F)ccc12	–
–	Cc1cc(CN)cc(C)c1-c1ncn(C)c1-c1ccnc2cc(F)ccc12	Activity (NCI-H1703): inactive; Activity [2]: inactive; Activity (A549): inactive
9.1	Cc1cc(CNCCN2CCN(CCCC(=O)N[C@H](C(=O)N3C[C@H](O)C[C@H]3C(=O)N[C@@H](C)c3ccc(-c4scnc4C)cc3)C(C)(C)C)CC2)cc(C)c1-c1ncn(C)c1-c1ccnc2cc(F)ccc12	–
1.6	Cc1cc(CNCCCCCC(=O)N[C@H](C(=O)N2C[C@H](O)C[C@H]2C(=O)N[C@@H](C)c2ccc(-c3scnc3C)cc2)C(C)(C)C)cc(C)c1-c1ncn(C)c1-c1ccnc2cc(F)ccc12	–
1.7	Cc1cc(CNCCCCCCCCCNc2cccc3c2C(=O)N(C2CCC(=O)NC2=O)C3=O)cc(C)c1-c1ncn(C)c1-c1ccnc2cc(F)ccc12 (stereo not drawn)	–
45.2	Cc1cc(CNCCCCCCCCCCCCCC(=O)N[C@H](C(=O)N2C[C@H](O)C[C@H]2C(=O)N[C@@H](C)c2ccc(-c3scnc3C)cc2)C(C)(C)C)cc(C)c1-c1ncn(C)c1-c1ccnc2cc(F)ccc12	–
11.1	Cc1cc(CNCCCCN2CCN(CC(=O)N[C@H](C(=O)N3C[C@H](O)C[C@H]3C(=O)N[C@@H](C)c3ccc(-c4scnc4C)cc3)C(C)(C)C)CC2)cc(C)c1-c1ncn(C)c1-c1ccnc2cc(F)ccc12	–
37.6	Cc1cc(CNCCCCCCN2CCN(CC(=O)N[C@H](C(=O)N3C[C@H](O)C[C@H]3C(=O)N[C@@H](C)c3ccc(-c4scnc4C)cc3)C(C)(C)C)CC2)cc(C)c1-c1ncn(C)c1-c1ccnc2cc(F)ccc12	–
38	Cc1cc(CNCCCCCCCCCCCCC(=O)N[C@H](C(=O)N2C[C@H](O)C[C@H]2C(=O)N[C@@H](C)c2ccc(-c3scnc3C)cc2)C(C)(C)C)cc(C)c1-c1ncn(C)c1-c1ccnc2cc(F)ccc12	–
-4.2	Cc1cc(CNCCCCC(=O)N[C@H](C(=O)N2C[C@H](O)C[C@H]2C(=O)N[C@@H](C)c2ccc(-c3scnc3C)cc2)C(C)(C)C)cc(C)c1-c1ncn(C)c1-c1ccnc2cc(F)ccc12	–
